Results reported in paper PMC10178127, “Immunomodulatory Effects of the Pea Defensin Psd1 in the Caco-2/Immune Cells Co-Culture upon Candida albicans Infection” (International Journal of Molecular Sciences, 2023).

Test system: Caco-2 polarized monolayer
Test: Multiplex xMAP cytokine production, Caco-2 monolayer without immune cells
Format: cell-based, human
Conditions: 24 h; for EGF level / Eotaxin level / FGF-2 level / FLT-3L level / Fractalkine level / G-CSF level / GM-CSF level / GROa level / IFNa2 level / IFNg level / IL-1RA level / IL-1a level / IL-1b level / IL-2 level / IL-3 level / IL-4 level / IL-5 level / IL-6 level / IL-7 level / IL-8 level / IL-9 level / IL-10 level / IL-12 (p40) level / IL-12 (p70) level / IL-13 level / IL-15 level / IL-17A level / IL-17E/IL-25 level / IL-17F level / IL-18 level / IL-22 level / IL-27 level / IP-10 level / M-GSF level / MCP-1 level / MCP-3 level / MDC level / MIG level / MIP-1a level / MIP-1b level / PDGF-AA level / PDGF-AB/BB level / RANTES level / TGF-a level / TNFa level / TNFb level / VEGFa level / sCD40L level: 2 µM apical, basolateral medium
Procedure: To estimate the impact of Candida albicans on cytokine production by intestinal-like epithelium, Caco-2 polarized monolayer without immune cells was used. […] A decrease in concentrations of IL-13 and IL-18 was also observed.
For growing cells, mimicking epithelial barriers in vitro, Caco-2 cells were seeded onto 24-well polycarbonate Millicell cell culture inserts (0.4 μm, 0.6 cm^2 surface area) (Millipore, Burlington, MA, USA), precoated with 0.2% bovine gelatin (Sigma-Aldrich), at a density of 2.5 × 10^5 cells/cm^2. The cells were grown for 21 days in a complete DMEM/F12 (1:1) medium with re-feeding every 2–3 days with a fresh complete medium. The integrity of the Caco-2 cell monolayer was checked by measuring the transepithelial electrical resistance (TEER) using a Millicell-ERS Voltohmmeter (Millipore). Only cell monolayers with TEER > 400 Ωcm^2 (after subtracting TEER in blank inserts without Caco-2 cells) were used in transport across epithelial monolayer and cytokine production experiments.
Monocytes and moDCs were seeded into the wells of 48- and 24-well plates in the complete RPMI-1640 medium supplemented with 10% human AB serum (HABS, Capricorn Scientific) without antibiotics 24 h prior to the experiment, and kept in a humidified CO2-incubator (5% CO2, 37 °C). After 24 h, the medium in the wells of the 48-well plate was replaced by fresh complete RPMI-1640 medium with 10% HABS, supplemented with 2 µM of Psd1 for the sample wells or fresh medium alone for the control wells. Medium in the wells of the 24-well plate was replaced by fresh complete RPMI-1640 medium with 10% human serum without antibiotics. Then, Millicell inserts with Caco-2 monolayers with TEER > 400 Ωcm^2 were placed into the wells of the 24-well plate, containing monocytes or moDCs. Wells with Millicell inserts with Caco-2 monolayers without immune cells were used as control wells. Medium in apical chambers of Millicell inserts was replaced by fresh complete RPMI-1640 with 10% human serum medium containing Psd1 at the final concentration of 2 µM or Candida albicans at the concentration of 5 × 10^4 cells/mL or yeast cells together with the pea defensin at the same concentration. Fresh complete RPMI-1640 medium only with 10% human serum and without antibiotics was used in control wells. Plates were kept in CO2-incubator (5% CO2, 37 °C) for another 24 h. Culture supernatants from the wells of the 48-well plate and basolateral chambers of the 24-well plate were collected and stored at −70 °C degrees less than one month prior to the analytes assessment.
The following 48 analytes were measured at a protein level by multiplex xMAP technology using the MILLIPLEX Human Cytokine/Chemokine/Growth Factor Panel A kit (HCYTA-60K-PX48, Merck, Darmstadt, Germany): sCD40L, EGF, Eotaxin-1/CCL11, FGF-2/FGF-basic, Flt-3 ligand, Fractalkine/CX3CL1, G-CSF, GM-CSF, GROα/CXCL1, IFNα2, IFNγ, IL-1α, IL-1β, IL-1RA, IL-2, IL-3, IL-4, IL-5, IL-6, IL-7, IL-8/CXCL8, IL-9, IL-10, IL-12(p40), IL-12(p70), IL-13, IL-15, IL-17A/CTLA8, IL-17E/IL-25, IL-17F, IL-18, IL-22, IL-27, IP-10/CXCL10, MCP-1/CCL2, MCP-3/CCL7, M-CSF, MDC/CCL22, MIG/CXCL9, MIP-1α/CCL3, MIP-1β/CCL4, PDGF-AA, PDGF-AB/BB, RANTES/CCL5, TGFα, TNFα, TNFβ, and VEGF-A. Multiplex-based assay read-out was performed using the MAGPIX system (Merck) with the xPONENT 4.2 software (Merck) in accordance with the manufacturer’s instruction with overnight incubation of the samples with primary antibodies. A final analysis was carried out with the MILLIPLEX Analyst v5.1 software (Merck). Measurements were performed twice for each sample. Release of the analytes in control and experimental samples was compared with an unpaired two-sample t-test using GraphPad Prism v.8.0.1 (GraphPad Software, Inc., San Diego, CA, USA). The p values ≤ 0.05 were considered significant.

Psd1: pea defensin from Pisum sativum (UNIPROT P81929), recombinant peptide overexpressed in Escherichia coli (KTCEHLADTYRGVCFTNASCDDHCKNKAHLISGTCHNWKCFCTQNC; UniProt P81929 1-46, looked up)
EGF level (Caco-2+Candida+Psd1): 1.19 pg/mL | Eotaxin level (Caco-2+Candida+Psd1): <3.52↓ pg/ml | FGF-2 level (Caco-2+Candida+Psd1): <13.35↓ pg/ml | FLT-3L level (Caco-2+Candida+Psd1): <0.40↓ pg/ml | Fractalkine level (Caco-2+Candida+Psd1): <17.82↓ pg/ml | G-CSF level (Caco-2+Candida+Psd1): <3.01↓ pg/ml | GM-CSF level (Caco-2+Candida+Psd1): <0.89↓ pg/ml | GROa level (Caco-2+Candida+Psd1): 34.82 pg/mL | IFNa2 level (Caco-2+Candida+Psd1): <4.56↓ pg/ml | IFNg level (Caco-2+Candida+Psd1): <2.23↓ pg/ml | IL-1RA level (Caco-2+Candida+Psd1): <0.66↓ pg/ml | IL-1a level (Caco-2+Candida+Psd1): <3.42↓ pg/ml | IL-1b level (Caco-2+Candida+Psd1): <2.26↓ pg/ml | IL-2 level (Caco-2+Candida+Psd1): <0.95↓ pg/ml | IL-3 level (Caco-2+Candida+Psd1): <0.60↓ pg/ml | IL-4 level (Caco-2+Candida+Psd1): <1.14↓ pg/ml | IL-5 level (Caco-2+Candida+Psd1): <0.30↓ pg/ml | IL-6 level (Caco-2+Candida+Psd1): 0.67 pg/mL | IL-7 level (Caco-2+Candida+Psd1): <0.38↓ pg/ml | IL-8 level (Caco-2+Candida+Psd1): 4.2 pg/mL | IL-9 level (Caco-2+Candida+Psd1): <2.08↓ pg/ml | IL-10 level (Caco-2+Candida+Psd1): <1.24↓ pg/ml | IL-12 (p40) level (Caco-2+Candida+Psd1): <3.56↓ pg/ml | IL-12 (p70) level (Caco-2+Candida+Psd1): <1.68↓ pg/ml | IL-13 level (Caco-2+Candida+Psd1): <2.61↓ pg/ml | IL-15 level (Caco-2+Candida+Psd1): <1.43↓ pg/ml | IL-17A level (Caco-2+Candida+Psd1): <2.09↓ pg/ml | IL-17E/IL-25 level (Caco-2+Candida+Psd1): <18.85↓ pg/ml | IL-17F level (Caco-2+Candida+Psd1): <19.03↓ pg/ml | IL-18 level (Caco-2+Candida+Psd1): 2.95 pg/mL | IL-22 level (Caco-2+Candida+Psd1): <5.23↓ pg/ml | IL-27 level (Caco-2+Candida+Psd1): <11.43↓ pg/ml | IP-10 level (Caco-2+Candida+Psd1): 5.8 pg/mL | M-GSF level (Caco-2+Candida+Psd1): <24.28↓ pg/ml | MCP-1 level (Caco-2+Candida+Psd1): <2.03↓ pg/ml | MCP-3 level (Caco-2+Candida+Psd1): <4.18↓ pg/ml | MDC level (Caco-2+Candida+Psd1): <0.30↓ pg/ml | MIG level (Caco-2+Candida+Psd1): <3.51↓ pg/ml | MIP-1a level (Caco-2+Candida+Psd1): <1.88↓ pg/ml | MIP-1b level (Caco-2+Candida+Psd1): <0.16↓ pg/ml | PDGF-AA level (Caco-2+Candida+Psd1): 160.02 pg/mL | PDGF-AB/BB level (Caco-2+Candida+Psd1): <5.84↓ pg/ml | RANTES level (Caco-2+Candida+Psd1): <0.62↓ pg/ml | TGF-a level (Caco-2+Candida+Psd1): <0.63↓ pg/ml | TNFa level (Caco-2+Candida+Psd1): <3.89↓ pg/ml | TNFb level (Caco-2+Candida+Psd1): 1.64 pg/mL | VEGFa level (Caco-2+Candida+Psd1): 197.1 pg/mL | sCD40L level (Caco-2+Candida+Psd1): <4.88↓ pg/ml | EGF level (Caco-2+Psd1): 1.19 pg/mL | Eotaxin level (Caco-2+Psd1): <3.52↓ pg/ml | FGF-2 level (Caco-2+Psd1): <13.35↓ pg/ml | FLT-3L level (Caco-2+Psd1): 0.46 pg/mL | Fractalkine level (Caco-2+Psd1): <17.82↓ pg/ml | G-CSF level (Caco-2+Psd1): <3.01↓ pg/ml | GM-CSF level (Caco-2+Psd1): <0.89↓ pg/ml | GROa level (Caco-2+Psd1): 27.77 pg/mL | IFNa2 level (Caco-2+Psd1): <4.56↓ pg/ml | IFNg level (Caco-2+Psd1): <2.23↓ pg/ml | IL-1RA level (Caco-2+Psd1): <0.66↓ pg/ml | IL-1a level (Caco-2+Psd1): 3.99 pg/mL | IL-1b level (Caco-2+Psd1): <2.26↓ pg/ml | IL-2 level (Caco-2+Psd1): <0.95↓ pg/ml | IL-3 level (Caco-2+Psd1): <0.60↓ pg/ml | IL-4 level (Caco-2+Psd1): 2.07 pg/mL | IL-5 level (Caco-2+Psd1): <0.30↓ pg/ml | IL-6 level (Caco-2+Psd1): 2.29 pg/mL | IL-7 level (Caco-2+Psd1): <0.38↓ pg/ml | IL-8 level (Caco-2+Psd1): 11.44 pg/mL | IL-9 level (Caco-2+Psd1): <2.08↓ pg/ml | IL-10 level (Caco-2+Psd1): <1.24↓ pg/ml | IL-12 (p40) level (Caco-2+Psd1): <3.56↓ pg/ml | IL-12 (p70) level (Caco-2+Psd1): <1.68↓ pg/ml | IL-13 level (Caco-2+Psd1): 6.35 pg/mL | IL-15 level (Caco-2+Psd1): <1.43↓ pg/ml | IL-17A level (Caco-2+Psd1): <2.09↓ pg/ml | IL-17E/IL-25 level (Caco-2+Psd1): <18.85↓ pg/ml | IL-17F level (Caco-2+Psd1): <19.03↓ pg/ml | IL-18 level (Caco-2+Psd1): 3.42 pg/mL | IL-22 level (Caco-2+Psd1): <5.23↓ pg/ml | IL-27 level (Caco-2+Psd1): <11.43↓ pg/ml | IP-10 level (Caco-2+Psd1): 7.04 pg/mL | M-GSF level (Caco-2+Psd1): <24.28↓ pg/ml | MCP-1 level (Caco-2+Psd1): <2.03↓ pg/ml | MCP-3 level (Caco-2+Psd1): <4.18↓ pg/ml | MDC level (Caco-2+Psd1): <0.30↓ pg/ml | MIG level (Caco-2+Psd1): <3.51↓ pg/ml | MIP-1a level (Caco-2+Psd1): <1.88↓ pg/ml | MIP-1b level (Caco-2+Psd1): <0.16↓ pg/ml | PDGF-AA level (Caco-2+Psd1): 347.49 pg/mL | PDGF-AB/BB level (Caco-2+Psd1): <5.84↓ pg/ml | RANTES level (Caco-2+Psd1): <0.62↓ pg/ml | TGF-a level (Caco-2+Psd1): 0.67 pg/mL | TNFa level (Caco-2+Psd1): <3.89↓ pg/ml | TNFb level (Caco-2+Psd1): 5.02 pg/mL | VEGFa level (Caco-2+Psd1): 413.86 pg/mL | sCD40L level (Caco-2+Psd1): <4.88↓ pg/ml | IL-6, IL-8/CXCL8, and IP-10 production (Caco-2, 2 μM apical): increase | direct immunomodulatory action on epithelial cells (Caco-2, 2 μM apical): no significant direct immunomodulatory action
